From patent US4293694A, “Pyrido[3,2,1-jk]carbazols” (Otsuka Pharmaceutical Co., Ltd., priority 1979, dated 1981)
Converted amounts (≈) assume the structure as drawn. Like-named read-outs stand apart in the source and are kept apart here.

Key:
[1] = test system: Bacillus subtilis ATCC 6633; experiment: Antimicrobial activity, serial dilution method on agar plate; format: cell-based; conditions: ATCC6633, read-out: Minimum Inhibitory Concentration (MIC)
Bacillus anthracis = experiment: microbe, parasite or virus in culture; format: cell-based; conditions: read-out: Minimum Inhibitory Concentration (MIC)
[2] = test system: Bacillus cereus ATCC 11778; experiment: Antimicrobial activity, serial dilution method on agar plate; format: cell-based; conditions: ATCC11778, read-out: Minimum Inhibitory Concentration (MIC)
[3] = test system: Staphyrococcus aureus FDA 209p; experiment: as above; format: cell-based; conditions: read-out: Minimum Inhibitory Concentration (MIC)
[4] = test system: Staphyrococcus aureus Newmann; experiment: as above; format: cell-based; conditions: read-out: Minimum Inhibitory Concentration (MIC)
[5] = test system: Streptococcus faecalis IFO 12580; experiment: as above; format: cell-based; conditions: Enterococcus faecalis, IFO12580, read-out: Minimum Inhibitory Concentration (MIC)
Streptomyces viridans = experiment: as above; format: cell-based; conditions: read-out: Minimum Inhibitory Concentration (MIC)
Sarcina lutea ATCC 9341 = experiment: as above; format: cell-based; conditions: Micrococcus luteus, ATCC9341, read-out: Minimum Inhibitory Concentration (MIC)
[6] = test system: Micrococcus flavus ATCC 10240a; experiment: as above; format: cell-based; conditions: ATCC10240A, read-out: Minimum Inhibitory Concentration (MIC)
[7] = test system: Serratia marcescens ATCC 14756; experiment: as above; format: cell-based; conditions: ATCC14756, read-out: Minimum Inhibitory Concentration (MIC)
[8] = test system: Salmonella typhimurium kh; experiment: as above; format: cell-based; conditions: Salmonella enterica, read-out: Minimum Inhibitory Concentration (MIC)
Enterbactor cloacae 2 = experiment: as above; format: cell-based; conditions: read-out: Minimum Inhibitory Concentration (MIC)
[9] = test system: Enterbactor aerogenes IFO 12979; experiment: as above; format: cell-based; conditions: read-out: Minimum Inhibitory Concentration (MIC)
[10] = test system: Klebsiella pneumoniae ST-101; experiment: as above; format: cell-based; conditions: ST101, read-out: Minimum Inhibitory Concentration (MIC)
Esherichia coli NIHJ = experiment: as above; format: cell-based; conditions: read-out: Minimum Inhibitory Concentration (MIC)
[11] = test system: Esherichia coli NIHJ JC-2; experiment: as above; format: cell-based; conditions: read-out: Minimum Inhibitory Concentration (MIC)
Proteus mirabilis 1287 = experiment: as above; format: cell-based; conditions: read-out: Minimum Inhibitory Concentration (MIC)
[12] = test system: Pseudomonas aeruginosa ATCC 10145; experiment: as above; format: cell-based; conditions: ATCC10145, read-out: Minimum Inhibitory Concentration (MIC)
Candida albicans KYU = experiment: as above; format: cell-based; conditions: read-out: Minimum Inhibitory Concentration (MIC)
Acute toxicity = conditions: rat, in vivo, rats, dd strain, 18 to 22 g, fasted 12 hours
Procedure: Further, the acute toxicity of the compounds of the present invention having the formula (I) was determined by intravenous administration (i.v.) and oral administration (p.o.) in 5 to 6 groups of rats (dd strain; body weight, 18 to 22 g; 10 rats in each group) which had been fasted for 12 hours prior to the test.

[13] = iv, read-out: LD50 (50% lethal dose), i.v.
[14] = po, read-out: LD50 (50% lethal dose), p.o.

## O=C(O)c1cn2c3c(cc(F)cc3c1=O)C1CCCCC12 (stereo not drawn) [Compound 1, 2-fluoro-7a,8,9,10,11,11a-hexahydro-4-oxo-4H-pyrido[3,2,1-jk]carbazol-5-carboxylic acid]
[1]
  MIC: 1.6 µg/mL (≈ 5.57 µM)
Bacillus anthracis
  MIC: 3.2 µg/mL (≈ 11.1 µM)
[2]
  MIC: 25 µg/mL (≈ 87 µM)
[3]
  MIC: 6.3 µg/mL (≈ 21.9 µM)
[4]
  MIC: 6.3 µg/mL (≈ 21.9 µM)
[5]
  MIC: 100 µg/mL (≈ 348 µM)
Streptomyces viridans
  MIC: 100 µg/mL (≈ 348 µM)
Sarcina lutea ATCC 9341
  MIC: 50 µg/mL (≈ 174 µM)
[6]
  MIC: 50 µg/mL (≈ 174 µM)
[7]
  MIC: 3.2 µg/mL (≈ 11.1 µM)
[8]
  MIC: 6.3 µg/mL (≈ 21.9 µM)
Enterbactor cloacae 2
  MIC: 3.2 µg/mL (≈ 11.1 µM)
[9]
  MIC: 3.2 µg/mL (≈ 11.1 µM)
[10]
  MIC: 3.2 µg/mL (≈ 11.1 µM)
Esherichia coli NIHJ
  MIC: 6.3 µg/mL (≈ 21.9 µM)
[11]
  MIC: 6.3 µg/mL (≈ 21.9 µM)
Proteus mirabilis 1287
  MIC: 12.5 µg/mL (≈ 43.5 µM)
[12]
  MIC: > 100 µg/mL
Candida albicans KYU
  MIC: > 500 µg/mL
Acute toxicity; [13]
  LD50: 130 mg/kg
Acute toxicity; [14]
  LD50: 5000 mg/kg

## O=C(O)c1cn2c3c(cccc3c1=O)C1CCCCC12 (stereo not drawn) [Compound 2, 7a,8,9,10,11,11a-Hexahydro-4-oxo-4H-pyrido[3,2,1-jk]carbazol-5-carboxylic acid]
[1]
  MIC: 12.5 µg/mL (≈ 46.4 µM)
Bacillus anthracis
  MIC: 25 µg/mL (≈ 92.8 µM)
[2]
  MIC: 100 µg/mL (≈ 371 µM)
[3]
  MIC: 25 µg/mL (≈ 92.8 µM)
[4]
  MIC: 25 µg/mL (≈ 92.8 µM)
[5]
  MIC: > 100 µg/mL
Streptomyces viridans
  MIC: > 100 µg/mL
Sarcina lutea ATCC 9341
  MIC: 100 µg/mL (≈ 371 µM)
[6]
  MIC: 100 µg/mL (≈ 371 µM)
[7]
  MIC: 12.5 µg/mL (≈ 46.4 µM)
[8]
  MIC: 25 µg/mL (≈ 92.8 µM)
Enterbactor cloacae 2
  MIC: 12.5 µg/mL (≈ 46.4 µM)
[9]
  MIC: 12.5 µg/mL (≈ 46.4 µM)
[10]
  MIC: 12.5 µg/mL (≈ 46.4 µM)
Esherichia coli NIHJ
  MIC: 25 µg/mL (≈ 92.8 µM)
[11]
  MIC: 25 µg/mL (≈ 92.8 µM)
Proteus mirabilis 1287
  MIC: 50 µg/mL (≈ 186 µM)
[12]
  MIC: > 100 µg/mL
Candida albicans KYU
  MIC: > 500 µg/mL
Acute toxicity; [13]
  LD50: 120 mg/kg
Acute toxicity; [14]
  LD50: 5000 mg/kg

## CCOC(=O)c1cn2c3c(cc(F)cc3c1=O)C1CCCCC12 (stereo not drawn) [Compound 3, ethyl 2-fluoro-7a,8,9,10,11,11a-hexahydro-4-oxo-4H-pyrido-[3,2,1-jk]carbazol-5-carboxylate]
[1]
  MIC: 6.3 µg/mL (≈ 20 µM)
Bacillus anthracis
  MIC: 50 µg/mL (≈ 159 µM)
[2]
  MIC: 100 µg/mL (≈ 317 µM)
[3]
  MIC: 25 µg/mL (≈ 79.3 µM)
[4]
  MIC: 25 µg/mL (≈ 79.3 µM)
[5]
  MIC: > 100 µg/mL
Streptomyces viridans
  MIC: > 100 µg/mL
Sarcina lutea ATCC 9341
  MIC: 100 µg/mL (≈ 317 µM)
[6]
  MIC: 100 µg/mL (≈ 317 µM)
[7]
  MIC: 25 µg/mL (≈ 79.3 µM)
[8]
  MIC: 25 µg/mL (≈ 79.3 µM)
Enterbactor cloacae 2
  MIC: 12.5 µg/mL (≈ 39.6 µM)
[9]
  MIC: 25 µg/mL (≈ 79.3 µM)
[10]
  MIC: 12.5 µg/mL (≈ 39.6 µM)
Esherichia coli NIHJ
  MIC: 25 µg/mL (≈ 79.3 µM)
[11]
  MIC: 12.5 µg/mL (≈ 39.6 µM)
Proteus mirabilis 1287
  MIC: 25 µg/mL (≈ 79.3 µM)
[12]
  MIC: > 100 µg/mL
Candida albicans KYU
  MIC: > 500 µg/mL
Acute toxicity; [13]
  LD50: 80 mg/kg
Acute toxicity; [14]
  LD50: 3000 mg/kg

## COc1cc2c3c(c1)c(=O)c(C(=O)O)cn3C1CCCCC21 (stereo not drawn) [Compound 4, 2-Methoxy-7a,8,9,10,11,11a-hexahydro-4-oxo-4H-pyrido[3,2,1-jk]carbazol-5-carboxylic acid]
[1]
  MIC: 3.2 µg/mL (≈ 10.7 µM)
Bacillus anthracis
  MIC: 6.3 µg/mL (≈ 21 µM)
[2]
  MIC: 12.5 µg/mL (≈ 41.8 µM)
[3]
  MIC: 12.5 µg/mL (≈ 41.8 µM)
[4]
  MIC: 12.5 µg/mL (≈ 41.8 µM)
[5]
  MIC: 100 µg/mL (≈ 334 µM)
Streptomyces viridans
  MIC: 100 µg/mL (≈ 334 µM)
Sarcina lutea ATCC 9341
  MIC: 100 µg/mL (≈ 334 µM)
[6]
  MIC: 100 µg/mL (≈ 334 µM)
[7]
  MIC: 12.5 µg/mL (≈ 41.8 µM)
[8]
  MIC: 12.5 µg/mL (≈ 41.8 µM)
Enterbactor cloacae 2
  MIC: 6.3 µg/mL (≈ 21 µM)
[9]
  MIC: 6.3 µg/mL (≈ 21 µM)
[10]
  MIC: 6.3 µg/mL (≈ 21 µM)
Esherichia coli NIHJ
  MIC: 12.5 µg/mL (≈ 41.8 µM)
[11]
  MIC: 12.5 µg/mL (≈ 41.8 µM)
Proteus mirabilis 1287
  MIC: 25 µg/mL (≈ 83.5 µM)
[12]
  MIC: > 100 µg/mL
Candida albicans KYU
  MIC: > 500 µg/mL
Acute toxicity; [13]
  LD50: 130 mg/kg
Acute toxicity; [14]
  LD50: 4000 mg/kg

## Cc1cc(C)c2c(=O)c(C(=O)O)cn3c2c1C1CCCCC13 (stereo not drawn) [Compound 5, 1,3-Dimethyl-7a,8,9,10,11,11a-hexahydro-4-oxo-4H-pyrido[3,2,1-jk]carbazol-5-carboxylic acid]
[1]
  MIC: 6.3 µg/mL (≈ 21.2 µM)
Bacillus anthracis
  MIC: 6.3 µg/mL (≈ 21.2 µM)
[2]
  MIC: 25 µg/mL (≈ 84.1 µM)
[3]
  MIC: 6.3 µg/mL (≈ 21.2 µM)
[4]
  MIC: 6.3 µg/mL (≈ 21.2 µM)
[5]
  MIC: > 100 µg/mL
Streptomyces viridans
  MIC: > 100 µg/mL
Sarcina lutea ATCC 9341
  MIC: 100 µg/mL (≈ 336 µM)
[6]
  MIC: 100 µg/mL (≈ 336 µM)
[7]
  MIC: 6.3 µg/mL (≈ 21.2 µM)
[8]
  MIC: 12.5 µg/mL (≈ 42 µM)
Enterbactor cloacae 2
  MIC: 6.3 µg/mL (≈ 21.2 µM)
[9]
  MIC: 12.5 µg/mL (≈ 42 µM)
[10]
  MIC: 12.5 µg/mL (≈ 42 µM)
Esherichia coli NIHJ
  MIC: 12.5 µg/mL (≈ 42 µM)
[11]
  MIC: 12.5 µg/mL (≈ 42 µM)
Proteus mirabilis 1287
  MIC: 12.5 µg/mL (≈ 42 µM)
[12]
  MIC: > 100 µg/mL
Candida albicans KYU
  MIC: > 500 µg/mL
Acute toxicity; [13]
  LD50: 120 mg/kg
Acute toxicity; [14]
  LD50: 3000 mg/kg
